ChEMBL document CHEMBL3885881, “DrugMatrix”

Species: Rattus norvegicus
Assay: DrugMatrix - Regimen: Daily Repeat
Type: toxicity, organism-based, Sprague-Dawley
Set-up: regimen Daily Repeat, gender Male, age 6-8 weeks
Details: in vivo, po, route oral GAVAGE, […]; for ABSOLUTE BASOPHIL / ABSOLUTE EOSINOPHIL / ABSOLUTE LYMPHOCYTE / ABSOLUTE MONOCYTE / ABSOLUTE SEGMENTED NEUTROPHIL / BASOPHIL / EOSINOPHIL / ERYTHROCYTE COUNT / HEMATOCRIT / HEMOGLOBIN / LEUKOCYTE COUNT / LYMPHOCYTE / MEAN CORPUSCULAR HEMOGLOBIN / MEAN CORPUSCULAR HEMOGLOBIN CONCENTRATION / MEAN CORPUSCULAR VOLUME / MONOCYTE / NEUTROPHIL / NUCLEATED RED BLOOD CELLS / PLATELET COUNT: tissue Blood; for ALANINE AMINOTRANSFERASE / ALBUMIN / ALKALINE PHOSPHATASE / ASPARTATE AMINOTRANSFERASE / BLOOD UREA NITROGEN / CARBON DIOXIDE / CHLORIDE / CHOLESTEROL / CREATINE PHOSPHOKINASE / CREATININE / GLUCOSE / LACTATE DEHYDROGENASE / LIPASE / PHOSPHORUS / POTASSIUM / SODIUM / TOTAL BILIRUBIN / TOTAL PROTEIN / URIC ACID: tissue Plasma
[1] = 0 mg/kg, 72 h, dose level Control, time 3 day
[2] = 0 mg/kg, 120 h, dose level Control, time 5 day
[3] = 11 mg/kg, 72 h, dose level High, time 3 day

Question: What does the source list for `C[C@H]1O[C@@H](O[C@H]2[C@@H](O)C[C@H](O[C@H]3[C@@H](O)C[C@H](O[C@H]4CC[C@@]5(C)[C@H](CC[C@@H]6[C@@H]5C[C@@H](O)[C@]5(C)[C@@H](C7=CC(=O)OC7)CC[C@]65O)C4)O[C@@H]3C)O[C@@H]2C)C[C@H](O)[C@@H]1O` [DIGOXIN]?
Answer: ABSOLUTE BASOPHIL [1]: 0 CELLS/uL; ABSOLUTE EOSINOPHIL [1]: 0 CELLS/uL; ABSOLUTE LYMPHOCYTE [1]: 8493 CELLS/uL; ABSOLUTE MONOCYTE [1]: 127 CELLS/uL; ABSOLUTE SEGMENTED NEUTROPHIL [1]: 896.67 CELLS/uL; BASOPHIL [1]: 0%; EOSINOPHIL [1]: 0%; ERYTHROCYTE COUNT [1]: 5.53 x10E6/uL; HEMATOCRIT [1]: 34.07%; HEMOGLOBIN [1]: 13.28 G/DL; LEUKOCYTE COUNT [1]: 9.52 x10E3/uL; LYMPHOCYTE [1]: 89.17%; MEAN CORPUSCULAR HEMOGLOBIN [1]: 24.07 pg; MEAN CORPUSCULAR HEMOGLOBIN CONCENTRATION [1]: 39.03 G/DL; MEAN CORPUSCULAR VOLUME [1]: 61.62 fL; MONOCYTE [1]: 1.33%; NEUTROPHIL [1]: 9.5%; NUCLEATED RED BLOOD CELLS [1]: 0.17 /100WBC; PLATELET COUNT [1]: 1054.17 x10E3/uL; ALANINE AMINOTRANSFERASE [1]: 77.67 u/L; ALBUMIN [1]: 4.08 G/DL; ALKALINE PHOSPHATASE [1]: 404.5 u/L; ASPARTATE AMINOTRANSFERASE [1]: 83.17 u/L; BLOOD UREA NITROGEN [1]: 14.33 mg/dL; CARBON DIOXIDE [1]: 33.17 mmol/L; CHLORIDE [1]: 101 MEQ/L; CHOLESTEROL [1]: 76.33 mg/dL; CREATINE PHOSPHOKINASE [1]: 184.5 u/L; CREATININE [1]: 0.13 mg/dL; GLUCOSE [1]: 163.67 mg/dL; LACTATE DEHYDROGENASE [1]: 130.33 u/L; LIPASE [1]: 11 u/L; PHOSPHORUS [1]: 9.27 mg/dL; POTASSIUM [1]: 6.26 MEQ/L; SODIUM [1]: 143.57 MEQ/L; TOTAL BILIRUBIN [1]: 0.18 mg/dL; TOTAL PROTEIN [1]: 5.82 G/DL; URIC ACID [1]: 1.38 mg/dL; ABSOLUTE BASOPHIL [2]: 0 CELLS/uL; ABSOLUTE EOSINOPHIL [2]: 0 CELLS/uL; ABSOLUTE LYMPHOCYTE [2]: 8546.17 CELLS/uL; ABSOLUTE MONOCYTE [2]: 49.5 CELLS/uL; ABSOLUTE SEGMENTED NEUTROPHIL [2]: 554.33 CELLS/uL; BASOPHIL [2]: 0%; EOSINOPHIL [2]: 0%; ERYTHROCYTE COUNT [2]: 5.36 x10E6/uL; HEMATOCRIT [2]: 33.38%; HEMOGLOBIN [2]: 13.2 G/DL; LEUKOCYTE COUNT [2]: 9.15 x10E3/uL; LYMPHOCYTE [2]: 93.17%; MEAN CORPUSCULAR HEMOGLOBIN [2]: 24.68 pg; MEAN CORPUSCULAR HEMOGLOBIN CONCENTRATION [2]: 39.58 G/DL; MEAN CORPUSCULAR VOLUME [2]: 62.38 fL; MONOCYTE [2]: 0.5%; NEUTROPHIL [2]: 6.33%; NUCLEATED RED BLOOD CELLS [2]: 0.17 /100WBC; PLATELET COUNT [2]: 1099.33 x10E3/uL; ALANINE AMINOTRANSFERASE [2]: 62.33 u/L; ALBUMIN [2]: 4.1 G/DL; ALKALINE PHOSPHATASE [2]: 419 u/L; ASPARTATE AMINOTRANSFERASE [2]: 83.17 u/L; BLOOD UREA NITROGEN [2]: 15.5 mg/dL; CARBON DIOXIDE [2]: 33.17 mmol/L; CHLORIDE [2]: 98 MEQ/L; CHOLESTEROL [2]: 58.33 mg/dL; CREATINE PHOSPHOKINASE [2]: 393.17 u/L; CREATININE [2]: 0.18 mg/dL; GLUCOSE [2]: 163 mg/dL; LACTATE DEHYDROGENASE [2]: 111.5 u/L; LIPASE [2]: 9.5 u/L; PHOSPHORUS [2]: 10.02 mg/dL; POTASSIUM [2]: 5.73 MEQ/L; SODIUM [2]: 143.65 MEQ/L; TOTAL BILIRUBIN [2]: 0.2 mg/dL; TOTAL PROTEIN [2]: 5.85 G/DL; URIC ACID [2]: 0.78 mg/dL; ABSOLUTE BASOPHIL [3]: 0 CELLS/uL; ABSOLUTE EOSINOPHIL [3]: 0 CELLS/uL; ABSOLUTE LYMPHOCYTE [3]: 7683.67 CELLS/uL; ABSOLUTE MONOCYTE [3]: 95.67 CELLS/uL; ABSOLUTE SEGMENTED NEUTROPHIL [3]: 254 CELLS/uL; BASOPHIL [3]: 0%; EOSINOPHIL [3]: 0%; ERYTHROCYTE COUNT [3]: 6.46 x10E6/uL; HEMATOCRIT [3]: 39.07%; HEMOGLOBIN [3]: 14.83 G/DL; LEUKOCYTE COUNT [3]: 8.03 x10E3/uL; LYMPHOCYTE [3]: 95.67%; MEAN CORPUSCULAR HEMOGLOBIN [3]: 22.9 pg; MEAN CORPUSCULAR HEMOGLOBIN CONCENTRATION [3]: 37.9 G/DL; MEAN CORPUSCULAR VOLUME [3]: 60.4 fL; MONOCYTE [3]: 1%; NEUTROPHIL [3]: 3.33%; NUCLEATED RED BLOOD CELLS [3]: 0 /100WBC; PLATELET COUNT [3]: 1036 x10E3/uL; ALANINE AMINOTRANSFERASE [3]: 99.67 u/L; ALBUMIN [3]: 4.37 G/DL; ALKALINE PHOSPHATASE [3]: 416 u/L; ASPARTATE AMINOTRANSFERASE [3]: 100.33 u/L; BLOOD UREA NITROGEN [3]: 11.67 mg/dL; CARBON DIOXIDE [3]: 33 mmol/L; CHLORIDE [3]: 100 MEQ/L; CHOLESTEROL [3]: 90.67 mg/dL; CREATINE PHOSPHOKINASE [3]: 245.33 u/L; CREATININE [3]: 0.1 mg/dL; GLUCOSE [3]: 142.33 mg/dL; LACTATE DEHYDROGENASE [3]: 125.67 u/L; LIPASE [3]: 10.33 u/L; PHOSPHORUS [3]: 8.27 mg/dL; POTASSIUM [3]: 6.27 MEQ/L; SODIUM [3]: 143.3 MEQ/L; TOTAL BILIRUBIN [3]: 0.2 mg/dL; TOTAL PROTEIN [3]: 6.3 G/DL; URIC ACID [3]: 1 mg/dL
